Experimental findings from US12630594B2, “Allergy antigen and epitope for same” (HOYU CO., LTD., priority 2017, dated 2026) are described below.

The test system of assay [1] is IgE antibody present in the serum of a fish-allergic patient. Description: Epitope mapping (1): peptide array of overlapping 15-amino-acid peptides. It counts as binding, human. The settings on record: average of 5 patients / average of 4 non-fish-allergic subjects at least 1.5, Mann-Whitney U test. As for the experimental part:
Epitope mapping was carried out using a library of overlapping peptides (length: 15 amino acids) corresponding to the amino acid sequences identified as allergy components of fish and the amino acid sequences of known fish allergy antigens aldolase, β-enolase, and glyceraldehyde-3-phosphate dehydrogenase (Non Patent Literature 2-4). Specifically, the library of overlapping peptides was prepared on the basis of the amino acid sequences of SEQ ID NO: 2 for alpha-actinin-3, SEQ ID NO: 5 for EEF1A2 binding protein-like, SEQ ID NO: 10 for alpha-1,4-glucan phosphorylase, SEQ ID NO: 19 for elongation factor 2, SEQ ID NO: 26 for heat shock cognate 70 kDa protein, SEQ ID NO: 33 for serotransferrin, SEQ ID NO: 43 for myosin binding protein H-like, SEQ ID NO: 56 for desmin (fragment), SEQ ID NO: 61 for capping protein (actin filament) muscle Z-line beta, SEQ ID NO: 70 for myosin heavy chain, fast skeletal muscle-like, SEQ ID NO: 110 for glycogen phosphorylase, muscle form-like, SEQ ID NO: 121 for myosin-binding protein C, fast-type-like, SEQ ID NO: 138 for ATP synthase subunit beta, mitochondrial, SEQ ID NO: 144 for L-lactate dehydrogenase A chain-like, SEQ ID NO: 445 for aldolase, SEQ ID NO: 446 for β-enolase, and SEQ ID NO: 447 for glyceraldehyde-3-phosphate dehydrogenase.
The peptides to be synthesized were shifted by 10 amino acids.
For preparation of peptide arrays, the Intavis CelluSpots™ technique was used. Specifically, the peptide arrays were prepared by the following procedure: (1) synthesizing peptides of interest on amino-modified cellulose disks using an automated chemical synthesis apparatus (Intavis MultiPep RS), (2) dissolving the amino-modified cellulose disks to obtain a cellulose-bound peptide solution, and (3) spotting the cellulose-bound peptides onto coated glass slides. The details of each procedure are as described below.
The presence or absence of binding, to each peptide fragment, of an IgE antibody present in the serum of a fish-allergic patient was measured through antigen-antibody reaction using the peptide arrays. The measurement was carried out according to the following procedure. • (1) The peptides were shaken at room temperature for 1 hour in PBST. • (2) The peptide arrays were shaken at overnight at room temperature in 5% serum/PBST. • (3) The peptide arrays were washed with a PBST solution (a PBS buffer containing 0.1% Tween 20 nonionic surfactant) for 5 minutes (×3). • (4) Anti-human IgE antibody-HRP(1:5,000, PBST) was added thereto, and the peptide arrays were shaken at room temperature for 1 hour. • (5) The peptide arrays were washed with a PBST solution for 5 minutes (×3). • (6) Pierce ECL Plus Western Blotting Substrate (produced by Thermo Fisher Scientific) was added thereto, and the peptide arrays were shaken at room temperature for 5 minutes. • (7) The chemiluminescence of the peptides treated as described above in (1) to • (6) was measured using Amersham Imager 600.
Chemiluminescence intensity in images obtained by the measurement described above in (7) was converted into a numeric value using ImageQuant TL (GE Healthcare). The average value of numeric values determined from images obtained from results about the serum of 5 patients was divided by the average value of numeric values determined from images obtained from results about the serum of 4 non-fish-allergic subjects. It was determined that a peptide having a calculated value (average value of the patient group/average value of the non-fish-allergic subject group) of at least 1.5 and a significant difference of […] in the Mann-Whitney U test was a peptide bound to an IgE antibody in a patient-specific manner.

The subject of assay [2] is IgE antibodies from patients. As to the kind of experiment: Epitope mapping (2): overlapping 10-amino-acid peptide fragments shifted by one amino acid. In kind it is binding, human. Particulars: positions numbered within the 15-amino-acid epitope; serum of 5 patients. The source says: On the basis of the sequences (SEQ ID NOs: 150-154 for alpha-actinin-3, SEQ ID NO: 155 for EEF1A2 binding protein-like, SEQ ID NOs: 156 and 157 for alpha-1,4-glucan phosphorylase, SEQ ID NOs: 158 and 159 for elongation factor 2, SEQ ID NOs: 160-162 for heat shock cognate 70 kDa protein, SEQ ID NOs: 163-167 for serotransferrin, SEQ ID NOs: 168-171 for myosin binding protein H-like, SEQ ID NOs: 172-174 for desmin (fragment), SEQ ID NOs: 175-178 for capping protein (actin filament) muscle Z-line beta, SEQ ID NOs: 179-185 for myosin heavy chain, fast skeletal muscle-like, SEQ ID NO: 186 for glycogen phosphorylase, muscle form-like, SEQ ID NOs: 187-196 for myosin-binding protein C, fast-type-like, SEQ ID NO: 197 for ATP synthase subunit beta, mitochondrial, SEQ ID NO: 198 for L-lactate dehydrogenase A chain-like, SEQ ID NO: 199 for aldolase, SEQ ID NOs: 200-202 for β-enolase, and SEQ ID NOs: 203 and 204 for glyceraldehyde-3-phosphate dehydrogenase) of the peptides bound to an IgE antibody in serum in a patient-specific manner as described above in (A), a library of overlapping peptide fragments (length: 10 amino acids) was prepared using the sequences of the peptides and sequences in which sequences were added so as to flank each peptide in the amino acid sequences of allergen components (SEQ ID NO: 2 for alpha-actinin-3, SEQ ID NO: 5 for EEF1A2 binding protein-like, SEQ ID NO: 10 for alpha-1,4-glucan phosphorylase, SEQ ID NO: 19 for elongation factor 2, SEQ ID NO: 26 for heat shock cognate 70 kDa protein, SEQ ID NO: 33 for serotransferrin, SEQ ID NO: 43 for myosin binding protein H-like, SEQ ID NO: 56 for desmin (fragment), SEQ ID NO: 61 for capping protein (actin filament) muscle Z-line beta, SEQ ID NO: 70 for myosin heavy chain, fast skeletal muscle-like, SEQ ID NO: 110 for glycogen phosphorylase, muscle form-like, SEQ ID NO: 121 for myosin-binding protein C, fast-type-like, SEQ ID NO: 138 for ATP synthase subunit beta, mitochondrial, SEQ ID NO: 144 for L-lactate dehydrogenase A chain-like, SEQ ID NO: 445 for aldolase, SEQ ID NO: 446 for β-enolase, and SEQ ID NO: 447 for glyceraldehyde-3-phosphate dehydrogenase) comprising the sequences of the peptide. Epitope mapping was carried out using the library.
The peptides to be synthesized were shifted by one amino acid.
The library was prepared by the same procedure as described above in (A), and the presence or absence of binding of an IgE antibody present in the serum of a patient and a non-fish-allergic subject to each peptide fragment was measured by the same technique as described above. Amino acids at positions where the binding activity against IgE antibodies from patients were lost or decreased in the peptides shifted by one amino acid while binding activity against IgE antibodies from non-fish-allergic subjects arose were confirmed as amino acids adversely affecting the specificity of binding to IgE antibodies.
Chemiluminescence intensity in images obtained by measurement was converted into a numeric value in the same manner as in (A) using ImageQuant TL (GE Healthcare). […]

In assay [3] the test system is IgE antibodies from patients. Description: Epitope mapping (3): alanine scanning. Set-up: species or system human. Particulars: positions numbered within the region important for binding; no influence on IgE binding when substituted by alanine. As for the experimental part: From the amino acid sequences identified above in (A), a library of peptide fragments in which N-terminal amino acids were substituted one by one by alanine according to a technique called alanine scanning (Non Patent Literature 5) was prepared by the same technique as described above. The presence or absence of binding of an IgE antibody present in the serum of a patient and a non-fish-allergic subject to each peptide fragment was measured by the same technique as described above. Amino acids at positions where the binding activity against IgE antibodies from patients were lost or decreased by the substitution by alanine while binding activity against IgE antibodies from non-fish-allergic subjects arose were confirmed as amino acids important for exertion of original antigenicity, or amino acids influencing exertion of original antigenicity.
Chemiluminescence intensity in images obtained by measurement was converted into a numeric value in the same manner as in (A) using ImageQuant TL (GE Healthcare). When values obtained using the sequences (SEQ ID NOs: 150-204) that were of the peptides confirmed to bind to an IgE antibody in a patient specific manner from the images obtained from results about the serum of 5 patients and served as the basis of overlapping were defined as 100%, it was determined that: a peptide having a value of less than 20% had no binding activity against IgE antibodies; a peptide having a value of 20% or more and less than 50% had binding activity, albeit poor, against IgE antibodies; a peptide having a value of 50% or more and less than 70% had binding activity, albeit somewhat poor, against IgE antibodies; a peptide having a value of 70% or more and less than 90% had equivalent binding activity against IgE antibodies; and a peptide having a value of 90% or more had almost equivalent or good binding activity against IgE antibodies and was thus a peptide had remaining binding activity against IgE antibodies.
By this analysis, common sequences important for exertion of original antigenicity were found in regions important for binding to IgE antibodies from patients, in the sequences serving as the basis of overlapping.

Consider “6 (LDNRLYYMVAEHDSS; epitope) [compound 6]”, for which the “IgE antibody binding in a patient-specific manner” value (from here on “IgE antibody binding”) in assay [1] was “bind in a patient-specific manner”. For the same substance, the “Positions of amino acids of region important for binding in epitope” value (“Positions” for short) in assay [2] is 1-11. Also, the “Non-binding-influencing amino acid in region important for binding” value (shortened to “Non-binding-influencing amino acid”) in assay [3] is reported as 8.
For “8 (DRFKVFADYEAYIKS; epitope) [compound 8]”, in assay [1], the “IgE antibody binding” value is “bind in a patient-specific manner”. Besides, the “Positions” value in assay [2] is given as 2-9.
“9 (AIMDKKSNIRNMSVI; epitope) [compound 9]”: the “IgE antibody binding” value in assay [1] is given as “bind in a patient-specific manner”.
For the substance “10 (GKSTLTDSLVSKAGI; epitope) [compound 10]”, in assay [1], the “IgE antibody binding” value is listed as “bind in a patient-specific manner”.
For the substance “37 (GGYIQAVLDRNLCEN; epitope) [compound 37]”, the “IgE antibody binding” value in assay [1] is given as “bind in a patient-specific manner”. Moreover, the “Non-binding-influencing amino acid” value in assay [3] is 3.
In the case of “48 (NVAKAHGGYSVFAGV; epitope) [compound 48]”, the “IgE antibody binding” value in assay [1] is “bind in a patient-specific manner”.
As for “49 (VLAGEPVGSRSKVTV; epitope) [compound 49]”, in assay [1], the “IgE antibody binding” value is reported as “bind in a patient-specific manner”. Besides, the “Positions” value in assay [2] was 5-13. In addition, the “Non-binding-influencing amino acid” value in assay [3] was 6.
As for “50 (SYGRALQASALKAWG; epitope) [compound 50]”, the “IgE antibody binding” value in assay [1] is on record as “bind in a patient-specific manner”.
Consider “54 (YMVYMFKYDSTHGRF; epitope) [compound 54]”, for which the “IgE antibody binding” value in assay [1] was “bind in a patient-specific manner”. For the same substance, the “Positions” value in assay [2] is 1-15.
Regarding “55 (PASYDAIKKVVKAAA; epitope) [compound 55]”, the “IgE antibody binding” value in assay [1] is recorded as “bind in a patient-specific manner”. The “Non-binding-influencing amino acid” value in assay [3] is given as 5.
